Assay [1] relates to HBT 3477 tumors. Description: Tumoricidal effect in HBT 3477 breast cancer xenografts. Format: in vivo, mice. How it is done:
Mice. Female athymic Balb/c nu/nu mice (7–10 week old; Harlan Sprague Dawley, Inc., Frederick, Md.) were maintained according to University of California animal care guidelines. HBT 3477 cells (3.0×10^6), harvested in log phase, were injected subcutaneously into one side of the abdomen for therapy studies (except where noted) and into both sides for immunopathology studies. Injection of RIT was by tail vein and cyclo-(Arg-Gly-Asp-D-Phe-[N-Me]-Val) was delivered by intraperitoneal (i.p.) injection. “Day 0” was designated as the time of RIT injection or, for first cRGD pentapeptide injection, for cRGD pentapeptide only group. Mice were sacrificed by cervical dislocation for immunopathology studies at the times indicated, when tumor burden exceeded allowed limits, or at 84 days for therapy studies.
Control (No RIT) Treatment groups.
High Dose RIT Treatment groups.
Low Dose RIT Treatment groups. […] These doses were given on day 0, 1 hour prior to RIT, followed by 5 more doses on days 2, 4, 6, 8, and 10 (30 mice, all with 1 tumor each).
Tumoricidal effect. Tumors were measured with calipers in 3 orthogonal diameters 3 times per week. Tumor volume was calculated using the formula for hemiellipsoids (DeNardo et al. Clin. Cancer Res., 3:71–79 (1997)). Initial tumor volume was defined as the volume on the day before treatment. Tumors that completely regressed were considered to have a volume of zero. […] For mice bearing two tumors with differing responses, tumor response was described according to both tumor responses. Mice dying prior to 30 days from toxicity were excluded from tumor response results.
Statistical Analysis. Statistical analysis of mortality data for RIT and CMRIT method treated mice was performed using a Fisher Exact test with StatExact software to determine if mortality was different. Statistical analysis of therapy data was done using a Cochran Mantel Haenszel test to evaluate effect of RIT dose on outcome for RIT and CMRIT method groups. Comparison of cure rates to all other responses for RIT vs. CMRIT method groups was done by Fisher Exact test, with the best tumor response used for 2-tumored animals for statistical purposes. Statistical differences between immunopathology groups at the different time points were assessed by analysis of variance (ANOVA) (Fisher PLSD) using STATview software as appropriate, with p<0.05 considered significant.

In assay [2] the test system is HBT 3477 tumors. Description: Microvessel density (CD31) in tumors. The assay is classed as in vivo, mice. The procedure: Cellular immunopathology groups. Unless otherwise noted, groups consisted of 2 mice, each bearing 2 tumors, for a total of 4 tumors analyzed at each time point. […] The tumors were removed, cut in half, frozen in optimal cutting temperature (O.C.T). medium, and stored at about −70° C. until sectioning (10-μm sections). All time points were evaluated for apoptosis by terminal deoxynucleotidyl transferase-mediated dUTP nick end labeling (TUNEL, Cavrieli, et al. J. Cell Bio., 119: 493–501 (1992)) analysis, and selected time points (untreated, 1,5 and 6 days) were assessed for differences in proliferation rate (Ki67) and microvessel density (CD31).
Proliferation and microvessel density Analyses. 10-μm sections of tumors from untreated and mice treated with cRGD pentapeptide, RIT and CMRIT method and sacrificed at 1, 5 and 6 days after treatment were fixed for 10 minutes in ice-cold acetone, rinsed in PBS, and briefly incubated in methanol with 0.6% H2O2 (5 minutes). After rinsing in PBS, sections were blocked for 10 minutes with 10% goat serum and 1% bovine serum albumin in PBS. Mouse anti-Ki67 MAb (Pharmingen, clone B56) was applied in blocking solution (6.25 μg/ml) and the slides were incubated at room temperature for 2 hours, followed by rinsing in PBS. Goat anti-mouse rhodamine-labeled or goat anti-mouse Cy-3-labeled antibody was applied (Jackson ImmunoResearch Laboratories, Inc, West Grove, Pa., 1:100) and the slides were incubated for 1 hour at room temperature. After rinsing in PBS the sections were incubated for 1 hour at room temperature with rat anti-mouse CD31 antibody (Pharmingen, 1:100), followed by rinsing in PBS and a subsequent 1 hour incubation with goat anti-rat FITC-labeled antibody (Pharmingen, 1:50). After rinsing in PBS, the slides were counterstained with DAPI (0.4 μg/ml) and mounted in Biomeda gel mount (Fisher) under coverslips. Quantitation of Ki67 was performed using an Olympus microscope at X1000 magnification for assessment of proliferation. The mean total number of Ki67-positive cells/field in a tumor was determined by counts from 6 fields per tumor chosen randomly by DAPI stain. Microvessel density was determined by counting the number of CD31-stained vessels per random field at X400 magnification. Any endothelial cell or cell cluster positive for CD31, which was separate from an adjacent cluster, was counted as one microvessel. Six randomly chosen fields per tumor section were used to establish an average for each tumor. Average microvessel density for a treatment group was determined by averaging the values from 4 tumors/group.

The mark [3] stands for this setting: Day 1, six fields per tumor at 400X.
The mark [4] stands for this setting: combined RIT 200–260 μCi, best response (parentheses).
Setting [5] is: combined RIT 200–260 μCi, worst response.
Where [6] appears, read: high dose RIT 260 μCi, best response (parentheses).
[7] abbreviates: high dose RIT 260 μCi, worst response.
Where [8] appears, read: low dose RIT, best response (parentheses).

As to `CC(C)[C@H]1C(=O)N[C@@H](CCCN=C(N)N)C(=O)NCC(=O)N[C@@H](CC(=O)O)C(=O)N[C@H](Cc2ccccc2)C(=O)N1C` [cyclo-(Arg-Gly-Asp-D-Phe-[N-Me]-Val)], in assay [1] (6×250 μg doses given every other day, in words), the “effect on tumor growth” value is recorded as “No apparent effect”. The molecule also showed a cures in assay [1] (no RIT, 6 × 250 μg i.p.) of 0%. Further, the “CR complete regression (number of mice)” value in assay [1] (no RIT, worst response) was 0. In addition, the “NR no regression (number of mice)” value in assay [1] (no RIT, worst response) came out at 18. Also, the “PR partial regression (number of mice)” value in assay [1] (no RIT, worst response) is on record as 0. The “Cure (number of mice)” value in assay [1] (no RIT, worst response of 2-tumored mice, 84 days) was “no cures”; in assay [1] (no RIT, worst response of 2-tumored mice, 84 days, listed as cRGD pentapeptide), 0. Besides, the “Microvessel density, average number ± SE of CD31 positive regions” value in assay [2] (setting [3]) is reported as 12 ± 2; in assay [2] (Day 5) it was 20 ± 4.
Regarding “^90Y-1,4,7,10-tetraazacyclododecane-N,N′,N″,N′″-tetraacetic acid-peptide-ChL6 [RIT]”, the “CR complete regression (number of mice)” value in assay [1] (setting [4]) is 10; in assay [1] (setting [5]), 6; in assay [1] (setting [6]), 6; in assay [1] (setting [7]), 2; in assay [1] (low dose RIT, worst response), 4. In addition, the “Cure (number of mice)” value in assay [1] (setting [4]) is 9; in assay [1] (combined low and high dose RIT 200–260 μCi, worst response) it was 8; in assay [1] (high dose RIT 260 μCi (CMRIT + cRGD 250 μg × 6), worst response), 4; in assay [1] (low dose RIT 200–230 μCi (CMRIT 200 μCi + cRGD 250 μg × 6), worst response) it was 4; in assay [1] (low dose RIT 200–230 μCi, best response (parentheses)), 5. The “NR no regression (number of mice)” value in assay [1] (setting [4]) stood at 0; in assay [1] (setting [5]), 3; in assay [1] (setting [7]) it was 0; in assay [1] (setting [8]) it was 0; in assay [1] (low dose RIT, worst response) it was 3. The “PR partial regression (number of mice)” value in assay [1] (setting [4]) was 27; in assay [1] (setting [5]) it was 29; in assay [1] (setting [6]), 16; in assay [1] (setting [7]) it was 20; in assay [1] (setting [8]), 11; in assay [1] (low dose RIT, worst response) it was 9. Moreover, in assay [1] (combined low and high dose RIT), the cure rate was found to be 20%. Also, the figures for the cures in assay [1] (high dose RIT (260 μCi)) and in assay [1] (low dose RIT (200–230 μCi)) were 15% and 25%, respectively. Besides, the “Microvessel density, average number ± SE of CD31 positive regions” value in assay [2] (setting [3]) amounted to 15 ± 1; in assay [2] (Day 5) it was 13 ± 1; in assay [2] (Day 6), 9 ± 1 e.

(Values after patent publication US7029652B2, “Method of treating tumors” (The Regents of the University of California, priority 1998, dated 2006).)
